This note sets out measurements from patent US5053392A, “Novel arginine, glycine, aspartic acid derivatives as platelet-aggregation inhibitors” (Rhone-Poulenc Rorer Pharmaceuticals Inc., priority 1989, dated 1991).

The test system of experiment [1] is thrombin-stimulated platelets. Kind of experiment: Inhibition of radiolabeled (125I) fibrinogen binding assay. The following applies: for Inhibition of 125I-Fibrinogen Binding to Platelet, inhibition at 50 μg/ml: at 50 μg/ml (footnote *); for IC50: thrombin-stimulated platelets, read-out: Inhibition of 125I-Fibrinogen Binding to Platelet IC50. The procedure: I. Inhibition of Radiolabeled (125I) Fibrinogen Binding Assay, which is essentially based on the method described in Proc Natl. Acad. Sci. U.S.A. Vol. 83, pp. 5708-5712, August 1986, and is as follows.
Platelets are washed free of plasma constitutes by the albumin density-gradient technique. In each experimental mixture platelets in modified Tyrode's buffer are stimulated with human α-thrombin at 22°-25° C. for 10 minutes (3.125×10" platelets per liter and thrombin at […]). Hirudin is then added at a 25-fold excess for 5 minutes before addition of the radiolabeled ligand and any competing ligand. After these additions, the final platelet count in the mixture is […], bound and free ligand are separated by centrifuging 50 μl of the mixture through 300 μl of 20% sucrose at 12,000×g for 4 minutes. The platelet pellet is then separated from the rest of the mixture to determine platelet-bound radioactivity. Nonspecific binding is measured in mixtures containing an excess of unlabeled ligand. When binding curves are analyzed by Scatchard analysis, nonspecific binding is derived as a fitted parameter from the binding isotherm by means of a computerized program. To determine the concentration of each inhibitory compound necessary to inhibit 50% of fibrinogen binding to thrombin-stimulated platelets (IC50), each compound is tested at 0.176 μgmol/liter (60 μg/ml). The IC50 is derived by plotting residual fibrinogen binding against the logarithm of the sample compound's concentration.

The test system of experiment [2] is Human Platelets. Kind of experiment: Inhibition of fibrinogen-mediated platelet aggregation. The format is cell-based. To be noted: for IC50: thrombin-activated human platelets, rate of aggregation. How it is done:
II. Inhibition of Fibrinogen - Mediated Platelet Aggregation, which is essentially based on the method described in Blood, Vol. 66, No. 4, October 1985, pp. 846-952, and is as follows.
Human Platelets were isolated from freshly drawn whole blood and were suspended in 0.14 mol/L NaCl, 2.7 mmol/L […], 12 mmol/L NaHCO3, 0.42 mmol/L Na2 HPO4, 0.55 mmol/L glucose, and 5 mmol/L Hepes, pH 7.35 at 2×10^8 platelets/ml. The suspension was incubated at 37° C. An aliquot of 0.4 ml of platelet suspension was activated by human thrombin at a final concentration of 2 μg/ml of thrombin for one minute. After one minute the reaction was stopped by a thrombin inhibitor. Serial dilution of the compound being tested was then added to the activated platelet, the reaction was allowed to proceed for one minute, followed by the addition of human fibrinogen at a final concentration of […] of fibrinogen. Platelet aggregation was then recorded by an aggregometer. Rate of aggregation was used to calculate IC50.

Non-standard residues stand in square brackets, D forms with d. Residues, ends and D or L forms follow the SMILES beside them. ξ: configuration not given here. Aze = O=C(O)[C@@H]1CCN1; ξPip = O=C(O)C1CCCCN1; Ava = NCCCCC(=O)O Some results are limits rather than exact numbers.

As to `CC(C)[C@H](NC(=O)[C@H](CC(=O)O)NC(=O)[C@@H]1CCCN1C(=O)[C@@H](N)CCCNC(=N)N)C(=O)O` [L-arginyl-L-prolyl-L-aspartyl-L-valine, L-Arginyl-L-prolyl-L-aspartyl-L-valine] (H-RPDV-OH), the “Inhibition of 125I-Fibrinogen Binding to Platelet, inhibition at 50 μg/ml” value in experiment [1] was “* (Inhibited less than 50% at 50 μg/ml)”. Moreover, in experiment [2], the “Inhibition of Fibrinogen Mediated Platelet Aggregation % inhibition at 100 μM” value is 25% and the IC50 was over 100 µM.

For `CC(C)[C@H](NC(=O)[C@H](CC(=O)O)NC(=O)[C@@H]1CCN1C(=O)CCCCN)C(=O)O` [N-(5-aminopentanoyl)-azetidin-(2S)-carboxyl-Asp-Val] (H-[Ava][Aze]DV-OH), the half-inhibitory concentration (IC50) in experiment [1] was over 200 µM; in experiment [2] it was 59 µM. Besides, the “Inhibition of Fibrinogen Mediated Platelet Aggregation % inhibition at 100 μM” value in experiment [2] was determined as 74%.

On to `CC(C)[C@H](NC(=O)[C@H](CC(=O)O)NC(=O)[C@@H]1CCN1C(=O)[C@@H](N)CCCNC(=N)N)C(=O)O` [N-(L-arqinyl)-azetidine-(2S)-carboxyl-Asp-Val] (H-R[Aze]DV-OH), for which the IC50 in experiment [1] and in experiment [2] was 13 µM in each case. Also, the “Inhibition of Fibrinogen Mediated Platelet Aggregation % inhibition at 100 μM” value in experiment [2] is 91%.

Consider `CC(C)[C@H](NC(=O)[C@H](CC(=O)O)NC(=O)C1CCCCN1C(=O)[C@@H](N)CCCNC(=N)N)C(=O)O` (stereo partly drawn) [N-[1-(L-arginyl)piperidin-2-yl-carbonyl]-L-aspartyl-L-valine] (H-R[ξPip]DV-OH), for which, in experiment [1], the “Inhibition of 125I-Fibrinogen Binding to Platelet, inhibition at 50 μg/ml” value is on record as “* (Inhibited less than 50% at 50 μg/ml)”. In experiment [2], the “Inhibition of Fibrinogen Mediated Platelet Aggregation % inhibition at 100 μM” value is 73% and the IC50 was determined as 28.6 µM.

As usually defined, the IC50 is the concentration needed to halve the response being measured.
